# In patent US20230218555A1, “CREATINE, ITS DERIVATIVES, COMPOSITIONS AND METHODS OF USE THEREOF” (priority 2021, published 2023):
# Experiments:
# Type in all cases: in vivo, human
# [1] = system: post trauma pain in the pinned ankle; assay: Example 34: ankle pain after surgical insertion of metal screws; conditions: for extent of pain relief: 6% in WEP 244, topical
# Method: A subject with above described post trauma pain at the end of each day experienced painful discomfort in the pinned ankle. […] Complete relief lasted nearly 24 hours. At the end of the next day, the ankle was as painful as the days before. Subject applied 6% C20 in same liquid vehicle.
# psoriatic arthritis = assay: Example 35: psoriatic arthritis, topical C20 and C26
# Method: A subject with a 40 year history of psoriasis and several years of psoriatic arthritis topically applied the formulations cited in Example 34 above. Formulation of C20 was applied to both hands. […] The formulation of C26 was applied to the left ankle and foot, pain of which was relieved in about 5 minutes and lasted for 4-5 hours.
# [2] = system: arthritic pain in the right hip joint; assay: Example 16: subcutaneous injection for hip pain
# Method: A subject who for several weeks was experiencing disabling arthritic pain in the right hip joint, was given two subcutaneous injections of a sterile 2% aqueous solution/suspension of creatine monohydrate over the point of pain, 0.5 ml given first, and 0.6 ml given five days later. […] A third subcutaneous injection of 0.7 ml of the 2% creatine monohydrate solution/suspension was given over the point of joint pain elicited by finger pressure. […] Hip remained pain free for another 2 weeks.
# [3] = system: rheumatoid arthritis; rheumatoid nodule; assay: Example 13: rheumatoid arthritis fingers, nodule injection and glove application; conditions: nodule injected with 0.15 ml of 2% aqueous solution/suspension once weekly, four injections; over 9 weeks
# Method: A subject noted changes in their fingers that appeared to be compatible with the diagnosis of early rheumatoid arthritis in autumn of the year. At about one month later there appeared over the terminal interphalangeal joint of the left third finger a raised inflammatory nodule compatible with the diagnosis of a rheumatoid nodule. The nodule was injected with 0.15 ml of a 2% aqueous solution/suspension of creatine monohydrate once weekly for four injections. […] Thereafter, for a period of one month, the subject wore a nitrile glove containing a few drops N-acetyl ethyl creatine 3% dissolved in water: propylene glycol 8:2 for about an hour twice daily on the left hand only.
# [4] = system: psoriatic arthritis, painful, swollen and erythematous right ankle; assay: Example 15: subcutaneous injection over ankle with psoriatic arthritis; conditions: 0.5 ml of 2% subcutaneous
# Method: A diabetic subject with psoriasis for over 4 decades, and worsening psoriatic arthritis for about 10 years, presented with an acutely painful, swollen and erythematous right ankle. Using a 1 ml insulin syringe with short needle they injected 0.5 ml of the 2% creatine monohydrate as described above into a subcutaneous site of the anterior ankle.
# [5] = system: arthritis of cervical and thoracic spine; assay: Example 14: subcutaneous injection over sites of spinal pain
# Method: A physician subject with continually worsening osteoarthritis of multiple joints for 15-16 years, prepared a sterile aqueous injectable solution/suspension of 2% creatine monohydrate. Under their direction, medical assistants were instructed on techniques to give subcutaneous injections of the 2% aqueous solution/suspension with either a 1 ml syringe with 27 gauge 13 mm needle or with a 1 ml insulin syringe with 30 gauge 8 mm needle.
# Five intervertebral painful sites of arthritis of cervical and thoracic spine, identified by finger pressure, received a single injection of 0.3 ml of the solution.
# [6] = system: Rheumatoid Arthritis (RA); assay: Example 26: rheumatoid arthritis, intralesional injection and topical; conditions: 0.15 ml of 2% aqueous solution/suspension once weekly, 4 injections; over 9 weeks
# Method: A subject, described in an earlier Example, after approximately 4 months of worsening symptoms, and finger joint enlargements on both hands, realized that they were rapidly developing RA, especially when a rheumatoid nodule enlarged over the terminal joint of the left […] finger to a size of approximately 1 cm in diameter, and about 3 mm thick. The nodule was initially injected with 0.15 ml of a 2% aqueous solution/suspension of creatine monohydrate once weekly for 4 injections. […] Thereafter the subject wore a nitrile glove containing a few drops of C15 3-9% dissolved in WP 82 for an hour twice daily on the left hand only. After another 2 months C15 9% in WP 82 was topically applied by means of their wearing nitrile gloves containing the C15 solution for 1 hour twice daily. […] It is intended for the subject to continue topical treatment in one form or another for an indefinite time forward.
# dental pain = assay: Example 17: post dental surgery pain; conditions: about 1 gram powder in mouth
# Method: A subject had three teeth, #23, 24 and 25 extracted at 12 noon, then had two implants posted immediately after. At about 6 pm, subject started to feel pain in the gum area after lidocaine anesthesia wore off. […] The subject took about 1 gram creatine monohydrate powder into mouth. The powder, as it dissolved in saliva, was rinsed for approximately 5 minutes, then swallowed. The dental pain stopped in about 20 minutes, and relief lasted for 8 hours.
# pain in the left ankle = assay: Example 8: post fracture acute ankle pain; conditions: before the test
# Description: A subject with a history of fractured left ankle seven years earlier, who had worn a plaster cast for several weeks at that time, related that for the past three months disturbing and increasing pain in the left ankle, which was occurring daily and was disturbing their sleep every night. […] They were provided 8 ounces of the above Formulation A (Example 4), to be applied to the painful ankle as needed.
# [7] = system: painful swollen right knee; assay: Example 9: painful swelling of knee joint, three topical formulations; conditions: before the test
# Method: A subject with relentless painful swollen right knee for 3-4 years, not relieved by oral ibuprofen, was tested and rated analgesic efficacy of the three following formulations applied topically to the knee. [table] [table] [table]
smiles,measurement,setting,value
"CCOC(=O)CN(C)C(N)=NC(=O)c1ccccc1 [Compound C20, N-benzoyl ethyl creatinate]",extent of pain relief,[1],Some relief did occur but not complete as with C26
same,extent of pain relief,psoriatic arthritis; 6% in WEP 244 applied to both hands,completely relieved
same,duration of relief,psoriatic arthritis; both hands,4 h
same,time to pain relief,psoriatic arthritis; both hands,about 2 minutes
"CCOC(=O)CN(C)C(N)=NC(=O)c1ccccc1OC(C)=O [Compound C26, N-2-acetoxybenzoyl ethyl creatinate]",duration of complete relief,[1]; 6% in WEP 244,~24 h
same,time to pain relief,[1]; 6% in WEP 244,≤ 1 min
same,extent of pain relief,[1],completely relieved the pain
same,extent of pain relief,psoriatic arthritis; 6% in WEP 244 applied to left ankle and foot,relieved
same,duration of relief,psoriatic arthritis; left ankle and foot,4 to 5 h
same,time to pain relief,psoriatic arthritis; left ankle and foot,about 5 minutes
CN(CC(=O)O)C(=N)N.O [creatine monohydrate],duration of complete relief of pain,[2]; after the first two injections,2 weeks
same,duration pain free,[2]; after third injection,2 weeks
same,time to complete relief of pain,"[2]; third injection, 0.7 ml",3 to 4 h
same,extent of pain relief,"[2]; third subcutaneous injection, 0.7 ml of 2%",Complete relieve of pain
same,extent of pain relief,"[2]; two subcutaneous injections of 2% solution/suspension, 0.5 ml and 0.6 ml five days later, person",Complete relief of pain
same,resolution of rheumatoid nodule,[3],the nodule resolved almost completely
same,edema and erythema of the ankle,[4],completely resolved within a week
same,state of ankle four weeks after the injection,[4],"remained pain free, was of normal appearance, and was completely functional as a normal ankle"
same,time to resolution of ankle pain,[4],about 30 minutes
same,extent of pain relief,"[4]; anterior ankle, person",Ankle pain completely resolved
same,extent of pain relief,[5]; single subcutaneous injection of 0.3 ml of 2% aqueous solution/suspension at five intervertebral sites,All sites/areas became pain free
same,time to pain free after injection,[5]; subcutaneous 0.3 ml of 2% per site,2 to 3 h
same,duration pain free,"[5]; subcutaneous 0.3 ml of 2% per site, no further therapy",7 weeks
same,resolution of rheumatoid nodule,[6],the nodule resolved almost completely
same,duration of relief,dental pain,8 h
same,time until dental pain stopped,"dental pain; rinsed approximately 5 minutes, swallowed, person",about 20 minutes
CC(C)Cc1ccc(C(C)C(=O)O)cc1 (stereo not shown) [ibuprofen],pain relief by oral comparator,pain in the left ankle,"did relieve the pain for several hours, but the pain always recurred"
same,pain relief by oral comparator,[7],not relieved
